Assay results as given in US7781438B2, “Indolylmaleimide derivatives” (Novartis AG, priority 2005, dated 2010).
One block for each compound: values may come before it.

Tests used:
Human recombinant PKCβ1 = biological target: T1, Human recombinant PKCβ1 (Homo sapiens, UniProt P05771); experiment: Protein Kinase Cβ1 assay; format: biochemical; conditions: for IC50: human recombinant PKCβ1, single compounds
T1 construct: purchased Oxford Biomedical Research
Experimental: (§1) The compounds of the invention are tested for their activity on different PKC isoforms according to the following method. Assay is performed in a white with clear bottom 384-well microtiterplate with non-binding surface. The reaction mixture (25 μl) contains 1.5 μM of a tridecapeptide acceptor substrate that mimics the pseudo substrate sequence of PKC a with the Ala→Ser replacement, 10 μM ^33P-ATP, 10 mM Mg(NO3)2, 0.2 mM CaCl2, PKC at a protein concentration varying from 25 to 400 ng/ml (depending on the isotype used), lipid vesicles (containing 30 mol % phosphatidylserine, 5 mol % DAG and 65 mol % phosphatidylcholine) at a final lipid concentration of 0.5 mM, in 20 mM Tris-HCl buffer pH 7.4+0.1% BSA. Incubation is performed for 60 min at room temperature. Reaction is stopped by adding […] of stop mix (100 mM EDTA, 200 μM ATP, 0.1% Triton X-100, 0.375 mg/well streptavidin-coated SPA beads in phosphate buffered saline w/o Ca, Mg. After 10 min incubation at room temperature, the suspension is spun down for 10 min at 300 g. Incorporated radioactivity is measured in a Trilux counter for 1 min. IC50 measurement is performed on a routine basis by incubating a serial dilution of inhibitor at concentrations ranging between 1-1000 μM. IC50 values are calculated from the graph by curve fitting with XL Fit® software.
Human recombinant PKCβ1 was obtained from Oxford Biomedical Research and is used under the assay conditions as described under Section A.1 above.

Human recombinant PKCα = biological target: T2, Human recombinant PKCα (Homo sapiens, UniProt P17252); experiment: Protein Kinase Cα assay; format: biochemical; conditions: single compounds
T2 construct: purchased Oxford Biomedical Research
Experimental: as §1
Human recombinant PKCα was obtained from Oxford Biomedical Research and is used under the assay conditions as described under Section A.1 above.

Human recombinant PKCδ = biological target: T3, Human recombinant PKCδ (Homo sapiens, UniProt Q05655); experiment: Protein Kinase Cδ assay; format: biochemical
T3 construct: purchased Oxford Biomedical Research
Experimental: as §1, with “software. […]” for “software.”

Human recombinant PKCθ = Human recombinant PKCθ (Homo sapiens, UniProt Q04759); experiment: Protein Kinase C θ assay; format: biochemical
Experimental: as §1, with “software. […]” for “software.”

Human recombinant PKCε = biological target: T4, Human recombinant PKCε (Homo sapiens, UniProt Q02156); experiment: Protein Kinase Cε assay; format: biochemical
T4 construct: purchased Oxford Biomedical Research
T4 sequence (Q02156 1-737): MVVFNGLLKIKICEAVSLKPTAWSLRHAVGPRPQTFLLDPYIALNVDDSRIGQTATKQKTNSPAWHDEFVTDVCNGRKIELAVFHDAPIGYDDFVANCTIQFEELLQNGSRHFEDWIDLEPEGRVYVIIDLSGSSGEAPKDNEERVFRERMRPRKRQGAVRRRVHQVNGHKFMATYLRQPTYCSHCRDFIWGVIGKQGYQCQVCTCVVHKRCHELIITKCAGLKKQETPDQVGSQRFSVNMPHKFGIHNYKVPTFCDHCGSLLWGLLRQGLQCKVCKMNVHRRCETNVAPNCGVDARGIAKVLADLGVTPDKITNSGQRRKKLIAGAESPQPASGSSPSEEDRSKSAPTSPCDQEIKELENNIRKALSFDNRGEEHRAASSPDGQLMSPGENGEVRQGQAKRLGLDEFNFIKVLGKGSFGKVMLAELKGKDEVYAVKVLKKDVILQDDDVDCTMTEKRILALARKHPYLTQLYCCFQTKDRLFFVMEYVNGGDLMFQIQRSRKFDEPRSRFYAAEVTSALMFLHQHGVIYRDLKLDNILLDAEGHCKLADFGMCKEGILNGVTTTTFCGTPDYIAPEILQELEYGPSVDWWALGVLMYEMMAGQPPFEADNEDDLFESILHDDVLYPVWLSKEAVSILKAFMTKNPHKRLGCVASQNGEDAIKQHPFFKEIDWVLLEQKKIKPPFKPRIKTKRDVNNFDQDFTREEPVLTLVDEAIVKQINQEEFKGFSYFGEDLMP
Experimental: as §1, with “software. […]” for “software.”

[1] = system: spleen cells from CBA and BALB/c mice; experiment: Allogeneic Mixed Lymphocyte Reaction (MLR), compared with BM assay; format: cell-based
Experimental: The two-way MLR is performed according to standard procedures (J. Immunol. Methods, 1973, 2, 279 and Meo T. et al., Immunological Methods, New York, Academic Press, 1979, 227-39). Briefly, spleen cells from CBA and BALB/c mice (1.6×10^5 cells from each strain per well in flat bottom tissue culture microtiter plates, 3.2×10^5 in total) are incubated in RPMI medium containing 10% FCS, 100 U/ml penicillin, 100 μg/ml streptomycin (Gibco BRL, Basel, Switzerland), 50 μM 2-mercaptoethanol (Fluka, Buchs, Switzerland) and serially diluted compounds. Seven three-fold dilution steps in duplicates per test compound are performed. After four days of incubation 1 μCi ^3H-thymidine is added. Cells are harvested after an additional five-hour incubation period, and incorporated ^3H-thymidine is determined according to standard procedures. […]
The ratios of the IC50 value for PKC β to the IC50 value for PKCα, of the IC50 value for PKC δ to the IC50 value for PKCα, of the IC50 value for PKC δ to the IC50 value for PKCα, of the IC50 value for PKC ε to the IC50 value for PKCα, of the IC50 value for PKC η to the IC50 value for PKCα, of the IC50 value for PKC θ to the IC50 value for PKCα, of the IC50 value as determined by the MLR assay and to the IC50 value as determined by the BM assay, obtained for some compounds of the invention are indicated in table 11.

Human recombinant PKCη = biological target: T5, Human recombinant PKCη (Homo sapiens, UniProt P24723); experiment: Protein Kinase Cη assay; format: biochemical
T5 construct: purchased PanVera
Experimental: as §1, with “software. […]” for “software.”

T1 sequence (P05771 whole entry): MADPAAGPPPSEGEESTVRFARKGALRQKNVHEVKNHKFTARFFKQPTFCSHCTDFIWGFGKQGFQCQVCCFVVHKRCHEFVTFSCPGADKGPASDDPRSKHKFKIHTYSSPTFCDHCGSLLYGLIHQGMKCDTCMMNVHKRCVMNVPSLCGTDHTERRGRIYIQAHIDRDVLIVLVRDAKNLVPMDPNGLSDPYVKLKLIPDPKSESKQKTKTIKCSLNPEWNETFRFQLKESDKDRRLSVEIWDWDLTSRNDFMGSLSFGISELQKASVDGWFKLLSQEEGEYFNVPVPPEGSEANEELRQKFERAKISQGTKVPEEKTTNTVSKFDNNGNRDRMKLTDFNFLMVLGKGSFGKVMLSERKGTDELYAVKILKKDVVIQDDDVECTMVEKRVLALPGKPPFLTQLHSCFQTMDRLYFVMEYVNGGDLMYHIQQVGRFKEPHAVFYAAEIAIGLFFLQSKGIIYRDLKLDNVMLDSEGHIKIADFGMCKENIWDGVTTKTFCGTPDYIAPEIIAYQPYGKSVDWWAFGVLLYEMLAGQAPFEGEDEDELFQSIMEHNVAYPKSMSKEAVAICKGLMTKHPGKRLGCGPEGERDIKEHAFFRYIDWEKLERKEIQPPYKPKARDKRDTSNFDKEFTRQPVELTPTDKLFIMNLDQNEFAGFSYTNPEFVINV
T5 sequence (P24723 whole entry): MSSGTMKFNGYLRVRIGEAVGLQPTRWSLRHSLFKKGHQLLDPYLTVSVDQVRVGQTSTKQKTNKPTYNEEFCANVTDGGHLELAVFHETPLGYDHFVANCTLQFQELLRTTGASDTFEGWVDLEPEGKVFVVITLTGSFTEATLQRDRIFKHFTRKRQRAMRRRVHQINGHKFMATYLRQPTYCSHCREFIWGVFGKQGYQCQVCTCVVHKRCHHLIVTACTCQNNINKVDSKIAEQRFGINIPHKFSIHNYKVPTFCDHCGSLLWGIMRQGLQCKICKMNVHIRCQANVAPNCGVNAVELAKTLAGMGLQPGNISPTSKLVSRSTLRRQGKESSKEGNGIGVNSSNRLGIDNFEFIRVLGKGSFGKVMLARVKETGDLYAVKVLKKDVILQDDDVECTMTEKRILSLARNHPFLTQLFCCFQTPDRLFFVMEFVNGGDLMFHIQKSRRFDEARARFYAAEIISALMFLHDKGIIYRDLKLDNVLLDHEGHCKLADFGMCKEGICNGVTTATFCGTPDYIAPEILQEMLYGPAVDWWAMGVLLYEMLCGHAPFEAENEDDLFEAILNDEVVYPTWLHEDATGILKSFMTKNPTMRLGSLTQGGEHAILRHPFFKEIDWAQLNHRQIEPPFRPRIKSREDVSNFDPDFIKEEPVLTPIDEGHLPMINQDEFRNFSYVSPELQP
Human recombinant PKCθ, sequence (Q04759 whole entry): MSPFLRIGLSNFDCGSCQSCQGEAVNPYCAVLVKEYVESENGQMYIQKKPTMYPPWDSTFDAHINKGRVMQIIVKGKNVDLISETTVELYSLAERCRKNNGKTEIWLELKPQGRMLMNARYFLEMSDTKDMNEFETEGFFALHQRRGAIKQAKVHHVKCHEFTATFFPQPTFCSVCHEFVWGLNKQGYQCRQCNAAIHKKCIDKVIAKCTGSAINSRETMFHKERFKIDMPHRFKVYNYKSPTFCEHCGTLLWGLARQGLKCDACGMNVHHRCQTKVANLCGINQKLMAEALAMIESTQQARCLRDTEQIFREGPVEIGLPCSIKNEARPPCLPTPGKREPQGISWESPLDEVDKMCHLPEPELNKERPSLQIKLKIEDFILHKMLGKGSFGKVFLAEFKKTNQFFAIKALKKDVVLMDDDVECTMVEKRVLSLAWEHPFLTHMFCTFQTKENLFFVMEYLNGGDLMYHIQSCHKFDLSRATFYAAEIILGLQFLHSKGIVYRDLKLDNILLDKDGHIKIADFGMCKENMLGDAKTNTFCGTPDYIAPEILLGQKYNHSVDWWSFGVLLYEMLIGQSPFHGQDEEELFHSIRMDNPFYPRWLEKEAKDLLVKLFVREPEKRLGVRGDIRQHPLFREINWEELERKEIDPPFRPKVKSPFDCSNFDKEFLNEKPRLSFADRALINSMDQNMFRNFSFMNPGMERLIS
T3 sequence (Q05655 whole entry): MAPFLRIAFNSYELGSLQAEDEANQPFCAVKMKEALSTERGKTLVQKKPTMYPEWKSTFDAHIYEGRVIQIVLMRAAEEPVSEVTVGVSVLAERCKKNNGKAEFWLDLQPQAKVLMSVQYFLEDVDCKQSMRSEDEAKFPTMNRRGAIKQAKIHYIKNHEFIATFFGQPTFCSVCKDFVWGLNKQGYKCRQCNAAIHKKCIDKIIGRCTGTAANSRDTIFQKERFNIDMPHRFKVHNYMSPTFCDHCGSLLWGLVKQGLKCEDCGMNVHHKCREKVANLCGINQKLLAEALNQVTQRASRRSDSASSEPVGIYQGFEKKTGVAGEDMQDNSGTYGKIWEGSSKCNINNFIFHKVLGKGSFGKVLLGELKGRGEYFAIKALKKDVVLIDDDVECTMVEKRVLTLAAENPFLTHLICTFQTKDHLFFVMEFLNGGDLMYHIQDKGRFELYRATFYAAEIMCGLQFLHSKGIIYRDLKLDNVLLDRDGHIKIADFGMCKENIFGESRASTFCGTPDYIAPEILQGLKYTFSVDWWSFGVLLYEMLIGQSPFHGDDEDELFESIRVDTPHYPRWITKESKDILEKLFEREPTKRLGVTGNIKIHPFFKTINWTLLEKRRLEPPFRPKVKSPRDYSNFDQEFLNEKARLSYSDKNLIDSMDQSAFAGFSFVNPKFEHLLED

Structure (SMILES): COc1cccc2c(C3=C(c4c(Cl)ccc5ccc(CN(C)C)cc45)C(=O)NC3=O)c[nH]c12 [Example 37]
IC50 (Human recombinant PKCα): 3 nM

Structure (SMILES): CN(C)Cc1ccc2ccc(Cl)c(C3=C(c4cn5c6c(cccc46)OCCC5)C(=O)NC3=O)c2c1 [Example 20]
IC50 (Human recombinant PKCα): 28 nM | δ/α (ratio of the IC50 value for PKC δ to the IC50 value for PKCα) (Human recombinant PKCδ): 30.6 | θ/α (ratio of the IC50 value for PKC θ to the IC50 value for PKCα) (Human recombinant PKCθ): 14.2 | ε/α (ratio of the IC50 value for PKC ε to the IC50 value for PKCα) (Human recombinant PKCε): >35.7 | BM/MLR (ratio of IC50 by the BM assay and IC50 by the MLR assay) [1]: >10 | η/α (ratio of the IC50 value for PKC η to the IC50 value for PKCα) (Human recombinant PKCη): >35.7 | β/α (ratio of the IC50 value for PKC β to the IC50 value for PKCα) (Human recombinant PKCβ1): 0.4 | IC50 (Human recombinant PKCβ1): 12.4 nM

Structure (SMILES): COCCOc1ccc2c(C3=C(c4c(Cl)ccc5ccc(CN(C)C)cc45)C(=O)NC3=O)c[nH]c2c1 [Example 38]
IC50 (Human recombinant PKCα): 9 nM

Structure (SMILES): Cc1cccc2c(C3=C(c4c(Cl)ccc5ncc(CN(C)C)cc45)C(=O)NC3=O)c[nH]c12 [Example 136]
IC50 (Human recombinant PKCβ1): 51 nM

Second part, the compound after the results:

IC50 (Human recombinant PKCβ1): 25 nM
Structure (SMILES): CN(C)Cc1cc2c(C3=C(c4c[nH]c5ccccc45)C(=O)NC3=O)c(Cl)ccc2cn1 [Example 146]

IC50 (Human recombinant PKCβ1): 41 nM
Structure (SMILES): CN(C)Cc1ccc2ccc(Cl)c(C3=C(c4cn(C)c5ccccc45)C(=O)NC3=O)c2n1 [Example 163]

δ/α (ratio of the IC50 value for PKC δ to the IC50 value for PKCα) (Human recombinant PKCδ): 7.1 | θ/α (ratio of the IC50 value for PKC θ to the IC50 value for PKCα) (Human recombinant PKCθ): 2.9 | ε/α (ratio of the IC50 value for PKC ε to the IC50 value for PKCα) (Human recombinant PKCε): 19.4 | BM/MLR (ratio of IC50 by the BM assay and IC50 by the MLR assay) [1]: 41.3 | η/α (ratio of the IC50 value for PKC η to the IC50 value for PKCα) (Human recombinant PKCη): 39.3 | β/α (ratio of the IC50 value for PKC β to the IC50 value for PKCα) (Human recombinant PKCβ1): 0.5
Structure (SMILES): Cn1cc(C2=C(c3c(Cl)ccc4ccc(CNCCF)cc34)C(=O)NC2=O)c2ccccc21 [Example 1, 3-{2-Chloro-7-[(2-fluoro-ethylamino)-methyl]-naphthalen-1-yl}-4-(1-methyl-1H-indol-3-yl)-pyrrole-2,5-dione]
